Assay results taken from patent US20210070748A1, “INHIBITORS OF BRUTONS TYROSINE KINASE” (Pharmacyclics LLC, priority 2015, published 2021).

Legend:
[1] = target: T1, BTK-WT (Homo sapiens, UniProt Q06187); experiment: Btk in vitro inhibitory activity (one of Method A TR-FRET, Method B electrophoretic mobility shift, Method C radiometric filter binding); assay type: biochemical; details: D-compounds panel data; read-out: IC50 BTK-WT
T1 construct: purified from insect cells as a full-length construct containing an N-terminal 6X-His tag; His6 (N); made in house; host or cells: insect cells (baculovirus Sf21 in Method B)

[2] = target: T2, TEC (Homo sapiens, UniProt P42680); experiment: Inhibition of a panel of kinases, in vitro HotSpot kinase assay: TEC; assay type: biochemical; details: D-compounds panel data; 1 μM ATP
T2 sequence (P42680 1-631): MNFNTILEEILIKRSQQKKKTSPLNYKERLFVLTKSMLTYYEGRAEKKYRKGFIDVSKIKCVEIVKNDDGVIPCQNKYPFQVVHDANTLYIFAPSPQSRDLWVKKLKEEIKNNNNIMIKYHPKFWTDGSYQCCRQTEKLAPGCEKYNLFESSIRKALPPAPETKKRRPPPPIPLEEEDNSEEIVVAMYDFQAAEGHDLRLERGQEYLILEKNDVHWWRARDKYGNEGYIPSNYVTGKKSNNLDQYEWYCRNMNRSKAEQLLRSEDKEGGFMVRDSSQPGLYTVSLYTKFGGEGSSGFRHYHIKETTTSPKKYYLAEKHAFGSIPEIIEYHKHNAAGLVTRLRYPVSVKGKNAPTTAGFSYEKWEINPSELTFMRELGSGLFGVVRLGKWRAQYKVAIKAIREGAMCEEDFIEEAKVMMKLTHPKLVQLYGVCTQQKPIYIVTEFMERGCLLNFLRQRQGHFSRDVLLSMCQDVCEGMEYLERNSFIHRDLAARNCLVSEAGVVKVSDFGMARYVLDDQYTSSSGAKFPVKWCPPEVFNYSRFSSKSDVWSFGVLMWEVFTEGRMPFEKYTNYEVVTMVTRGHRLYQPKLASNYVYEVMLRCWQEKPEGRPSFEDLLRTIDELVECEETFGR
Protocol: The degree of inhibition of a panel of kinases is determined using the in vitro HotSpot kinase assay (purified enzymes, ^33P-ATP, an appropriate substrate and 1 μM ATP).

T1 sequence (Q06187 whole entry): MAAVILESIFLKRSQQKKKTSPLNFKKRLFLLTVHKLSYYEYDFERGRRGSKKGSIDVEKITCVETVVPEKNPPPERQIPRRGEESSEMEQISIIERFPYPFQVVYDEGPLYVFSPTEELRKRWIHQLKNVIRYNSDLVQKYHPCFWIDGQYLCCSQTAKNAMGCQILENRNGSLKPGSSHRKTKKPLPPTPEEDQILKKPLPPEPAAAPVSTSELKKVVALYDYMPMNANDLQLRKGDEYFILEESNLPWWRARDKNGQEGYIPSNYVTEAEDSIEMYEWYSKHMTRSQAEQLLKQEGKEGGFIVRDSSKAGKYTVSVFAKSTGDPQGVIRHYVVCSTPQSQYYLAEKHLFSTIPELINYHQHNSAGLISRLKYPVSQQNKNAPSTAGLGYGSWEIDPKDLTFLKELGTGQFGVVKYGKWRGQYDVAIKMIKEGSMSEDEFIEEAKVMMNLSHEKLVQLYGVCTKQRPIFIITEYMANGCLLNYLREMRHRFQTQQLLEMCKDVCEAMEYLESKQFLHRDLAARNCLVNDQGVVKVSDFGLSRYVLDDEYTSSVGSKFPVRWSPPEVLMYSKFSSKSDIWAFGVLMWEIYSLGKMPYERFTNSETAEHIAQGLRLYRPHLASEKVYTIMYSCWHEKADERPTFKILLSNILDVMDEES

| IC50 [1] [nM] | IC50 [2] [nM] | Structure (SMILES) |
| --- | --- | --- |
| ≤ 10 | > 10000 | Cc1cc(Nc2nc(N3CCC[C@@H](n4ccc5cc(C6CC6)ccc5c4=O)C3)cnc2C(N)=O)sn1 [Example D-166, 5-[(3R)-3-(6-cyclopropyl-1-oxo-1,2-dihydroisoquinolin-2-yl)piperidin-1-yl]-3-[(3-methyl-1,2-thiazol-5-yl)amino]pyrazine-2-carboxamide] |
| ≤ 10 | 10 to 100 | CN1CCN(Cc2ccc(Nc3nc(N4CCC[C@@H](n5ccc6cc(C7CC7)ccc6c5=O)C4)cnc3C(N)=O)cc2)CC1 [Example D-167, 5-[(3R)-3-(6-cyclopropyl-1-oxo-1,2-dihydroisoquinolin-2-yl)piperidin-1-yl]-3-({4-[(4-methylpiperazin-1-yl)methyl]phenyl}amino)pyrazine-2-carboxamide] |
| 100 to 1000 | 100 to 1000 | NC(=O)c1ncc(N2CCC[C@@H](n3ccc4cc(C5CC5)ccc4c3=O)C2)nc1Nc1ccc2ncccc2c1 [Example D-168, 5-[(3R)-3-(6-cyclopropyl-1-oxo-1,2-dihydroisoquinolin-2-yl)piperidin-1-yl]-3-[(quinolin-6-yl)amino]pyrazine-2-carboxamide] |
